From patent US9931351B2, “Method for improving leptin resistance” (Kyoto University, priority 2013, dated 2018)

Key:
Format in all cases: in vivo
A-ZIP/F-1 mice = assay: Test Example 3: effects to improve metabolism in A-ZIP/F-1 mice, a model of generalized lipodystrophy; details: standard diet, 50 mg/kg/day intraperitoneal once a day, four weeks; for level of nonesterified fatty acid / level of total cholesterol / level of triglyceride: plasma
Description: A-ZIP/F-1 mice, which are used as a model of generalized lipodystrophy, have substantially no white adipocyte and thus cannot produce leptin (Moitra et al. Genes Dev 12: 3168-3181, 1998). Eight-week old male A-ZIP/F-1 mice, gifted from Dr. Reitman of National Institutes of Health, were divided into two treatment groups: “Vehicle (V)” and “Compound 57”. The mice were kept for four weeks with ad libitum feeding of standard diet (SD), and the body weight and the food intake of the mice were measured. The vehicle and Compound 57 were administered to the mice by intraperitoneal injection once a day. The dosage of Compound 57 was 50 mg/kg/day. After the four weeks the mice were sacrificed and blood, epididymal adipose tissues, and the liver were collected. The weight of the adipose tissues, the liver weight, the liver triglyceride levels, the plasma levels of glucose, insulin, total cholesterol (T-chol), triglyceride (TG) and nonesterified fatty acid (NEFA) were measured (n=5 for each group). The equivalent dosage of Compound 32 was tested in a similar manner (n=5 for each group).

[1] = tested on: leptin-deficient ob/ob mice; assay: Test Example 2: effects to improve metabolism in leptin-deficient ob/ob mice; details: standard diet, 50 mg/kg/day intraperitoneal once a day, four weeks; for weight of the adipose tissues: epididymal; for nonesterified fatty acid levels / total cholesterol levels / triglyceride levels: plasma
Method: Ob/ob mice cannot produce leptin due to a mutation in the leptin gene (Zhang et al. Nature 372: 425-432, 1994). Eight-week old male ob/ob mice, purchased from CHARLES RIVER LABORATORIES JAPAN, INC., were divided into two treatment groups: “Vehicle (V)” and “Compound 57”. The mice were kept for four weeks with ad libitum feeding of standard diet (SD), and the body weight and the food intake of the mice were measured. The vehicle and Compound 57 were administered to the mice by intraperitoneal injection once a day. The dosage of Compound 57 was 50 mg/kg/day. After the four weeks the mice were sacrificed and blood, epididymal adipose tissues, and the liver were collected. The weight of the adipose tissues, the liver weight, the liver triglyceride levels, and the plasma levels of glucose, insulin, total cholesterol (T-chol), triglyceride (TG) and nonesterified fatty acid (NEFA) were measured (n=5 for each group). The equivalent dosage of Compound 32 was tested in a similar manner (n=5 for each group).

[2] = tested on: transgenic mice overexpressing leptin (LepTg) having diet-induced obesity; assay: Test Example 4: effects to improve metabolism in LepTg mice having diet-induced obesity caused by a high fat diet; details: LepTg mice obese after four-week high fat diet, continued high fat diet, 50 mg/kg/day intraperitoneal once a day, further four weeks; for weight of the adipose tissues: epididymal
Method: Eight-week old male wild type mice and transgenic mice overexpressing leptin (LepTg) (see Test Example 1) were divided into two groups, respectively (n=4 and 12), and kept for four weeks under a standard diet (SD) or a high fat diet (HFD) condition. All the mice fed with the standard diet for the four weeks were assigned to the group “vehicle (V)” and fed with the standard diet for further four weeks, and then the body weight and the food intake of the mice were measured. The mice fed with the high fat diet for the four weeks were divided into three groups: “vehicle (V)”, “Compound 57”, and “Compound 32”, and fed with the high fat diet for further four weeks, and then the body weight and the food intake of the mice were measured. The vehicle, Compound 57, and Compound 32 were administered to the mice by intraperitoneal injection once a day. The each dosage of Compounds 57 and 32 was 50 mg/kg/day. Finally the mice were sacrificed and blood, epididymal adipose tissues, and the liver were collected. The weight of the adipose tissues, the liver weight, and the plasma levels of glucose and triglyceride were measured (n=4 for each group).

Row | SMILES | body weight (A-ZIP/F-1 mice) | food intake (A-ZIP/F-1 mice) | liver triglyceride levels (A-ZIP/F-1 mice) | liver weight (A-ZIP/F-1 mice) | plasma insulin levels (A-ZIP/F-1 mice) | random plasma glucose levels (A-ZIP/F-1 mice) | level of nonesterified fatty acid (A-ZIP/F-1 mice) | level of total cholesterol (A-ZIP/F-1 mice) | level of triglyceride (A-ZIP/F-1 mice) | body weight [1] | food intake [1] | liver triglyceride levels [1] | liver weight [1] | plasma insulin levels [1] | random plasma glucose levels [1] | weight of the adipose tissues [1] | nonesterified fatty acid levels [1] | total cholesterol levels [1] | triglyceride levels [1] | blood level of glucose [2] | further results
1 | Cc1cc(F)ccc1-c1ccc(/N=N/c2cc(S(=O)(=O)[O-])c3ccccc3c2N)cn1.[Na+] [Compound 32, 4-amino-3-[6-(4-fluoro-2-methylphenyl)pyridine-3-ylazo]naphthalene-1-sulfonic acid sodium salt] | did not | did not change | did not change | did not change | did not change | did not change | did not change | did not change | did not change | did not | did not change | did not change | did not change | did not change | did not change | did not change | did not change | did not change | did not change | decreased | blood level of triglyceride [2]: decreased; body weight [2]: decreased; food intake [2]: significantly decreased; weight of the adipose tissues [2]: significantly decreased
2 | Nc1c(/N=N/c2ccc(-c3cccc4c3sc3ccccc34)nc2)cc(S(=O)(=O)[O-])c2ccccc12.[Na+] [Compound 57, 4-amino-3-(6-dibenzothiophene-4-ylpyridine-3-ylazo)naphthalene-1-sulfonic acid sodium salt] | slightly decreased | did not change | decreased | decreased | did not change | did not change | decreased | decreased | decreased | decreased | did not change | decreased | decreased | did not change | did not change | decreased | decreased | decreased | did not clearly change | decreased | blood level of triglyceride [2]: decreased; body weight [2]: decreased; food intake [2]: significantly decreased; liver weight [2]: decreased; weight of the adipose tissues [2]: significantly decreased
